Measurements from ChEMBL document CHEMBL1151258, “New cytotoxic cembranes from the sea pen Gyrophyllum sibogae” (2004).

Columns and labels:
Assay type in all cases: functional
Settings in all cases: read-out: ED50 (the source's name)
HT-29 = assay: Cytotoxicity against human HT-29 cells
[1] = Cytotoxicity against human IGROV cells
DU-145 = assay: Cytotoxicity against human DU145 cells
K562 = assay: Cytotoxicity against human K562 cells

C/C1=C/C=C(\C(C)C)C(=O)[C@@H](O)[C@H](C)CCC(=O)[C@H](CO)CCC1
EC50 (HT-29): 14.5 nM | EC50 [1]: 90.3 nM | EC50 (DU-145): 82 nM | EC50 (K562): 62.7 nM
